# What was measured:
# [1] = Antiproliferative activity against human HREC cells assessed as cell growth inhibition incubated for 44 hrs by AlamarBlue reagent based fluorescence assay; type: functional
# [2] = Cytotoxicity against human ARPE-19 cells assessed as cell growth inhibition incubated for 44 hrs by AlamarBlue reagent based fluorescence assay; type: toxicity
# HREC = experiment: Antiangiogenic activity against human HREC cells assessed as inhibition of invitro tubule formation by measuring tubule length at 0.05 to 50 uM and measured after 8 hrs by Matrigel based bright-field microscopy; type: functional, cell-based; settings: dose 0.05-50 µM
Compound,GI50 [1] [µM],GI50 at 44 h [2] [µM],Activity (HREC)
COc1ccc(CC2COc3cc(OC)c(OC)c(OC)c3C2=O)cc1OC(=O)[C@H](Cc1ccccc1)NC(=O)OC(C)(C)C (some centres not stated),0.018,> 100,–
CC(C)=CCc1c(O)ccc2c1OC[C@H]1c3ccc4c(c3O[C@@H]21)CC(O)C(C)(C)O4 (some centres not stated),4.67,> 100,Dose-Dependent Effect
CC1(C)C=Cc2c(ccc3c2O[C@H]2c4ccc5c(c4OC[C@@H]32)C=CC(C)(C)O5)O1,> 100,> 100,–
CC(C)=CCc1cc2c(c(CC=C(C)C)c1O)OC[C@@H](c1ccc(O)cc1O)C2=O,5.85,> 100,Dose-Dependent Effect
CC(C)=CCc1cc2c(c(CC=C(C)C)c1O)OC[C@@H](c1ccc(O)cc1O)C2,3.65,> 100,Dose-Dependent Effect
CC(C)=CCc1c(O)ccc2c1O[C@H]1c3ccc(O)c(CC=C(C)C)c3OC[C@@H]21 [ERYBRAEDIN A],4.21,> 100,Dose-Dependent Effect
CC(C)=CCc1cc2c(cc1O)OC[C@H]1c3ccc(O)c(CC=C(C)C)c3O[C@@H]21 [ERYBRAEDIN C],2.57,> 100,Dose-Dependent Effect
CC1(C)C=Cc2c(ccc3c2O[C@H]2c4ccc(O)cc4OC[C@@H]32)O1 [PHASEOLIN],4.65,> 100,Dose-Dependent Effect
CC(C)=CCc1c(O)ccc2c1O[C@H]1c3ccc(O)cc3OC[C@@H]21 [PHASEOLLIDIN],> 100,> 100,–
COc1ccc2c(c1CC=C(C)C)O[C@H]1c3ccc(O)cc3OC[C@@H]21 [SANDWICENSIN],5.91,> 100,Dose-Dependent Effect

# Reference: ChEMBL document CHEMBL5252627, “Antiangiogenic Pterocarpan and Flavonoid Constituents of Erythrina lysistemon” (J Nat Prod, 2023)
